Ends that are not written are not given here.
These sequences were tested on Micrococcus luteus (assay: Minimum inhibitory and minimum bactericidal concentrations). Conditions: bacterium not named in the method sentence; Fig. 6 uses Micrococcus luteus.
Type: cell-based

| Sequence | minimum bactericidal concentrations (MBCs) [µM] |
| --- | --- |
| VKRRRRLAGFRTVRGY [Sc] | 20 |
| RKWRSKRKQKSKKSSQRYM [Aq-2] | 40 |
| KCFLRRRRSRA [Bc] | 20 |
| MKRRRKFSHFSFKRGY [Dr-2] | 10 |

What follows are sequences tested on Pseudomonas fluorescens (assay: Bactericidal activity of MPEG1 peptides, plate count). Conditions: peptide 20 µM, 4 h.
Type: cell-based

| Sequence | effect on the propagation of P. fluorescens |
| --- | --- |
| RRNRRRSRSSLSPTTSN [Aj-2] | slightly enhance the propagation |
| RRHKSVKRDSRGLT [Nv] | slightly enhance the propagation |

— publication PMC10781884 (Computational and Structural Biotechnology Journal, 2023)
